The values that follow come from publication PMC10831936 (iScience, 2024).

pEC50, pIC50: −log10 of the molar value. Entries after “also recorded” stand apart in the source; their conditions may differ. Read-outs that look alike come from different tables or passages of the source.

The pEC50 is the negative decadic logarithm of the EC50, by convention in mol/L. Lower therefore signals a large EC50.

The subject of assay [1] is calcium. Put plainly: Fluo-4 AM calcium assay in PC12 cells. It counts as cell-based, Rattus norvegicus. The note with it: stimulation mix.
Procedure: On DIV2, cells were pre-equilibrated in 10 μM Fluo-4 a.m. (Thermo Fisher Scientific, F14201) away from light for 1 h at 37°C. Next, cells were incubated in the indicator-free starvation medium to allow de-esterification for 20 min away from light at 37°C. Background fluorescence was then measured using the BMG POLARstar Optima Microplate Reader prior to adding the treatments and continuously measuring the fluorescence for the next 30 min. Fluorescence was measured using the bottom optics.
Assay [2] concerns cAMP. Put plainly: GloSensor cAMP assay in PC12 cells. It counts as cell-based, Rattus norvegicus. In general terms: cAMP levels reflect the balance of adenylyl cyclase and phosphodiesterase activity.
Procedure: The GloSensor cAMP assay was conducted with the same parameters (50,000 PC12 cells per 96-well) as described above for the firefly luciferase assay, with however, three differences. Specifically, (1) 30 ng/well of the pGloSensor-22F plasmid (Promega, E2301) was used for transfection, and (2) on DIV3, cells were equilibrated in assay medium containing a 2% v/v dilution of D-luciferin (Synchem, bc219) for 2 h at 37°C before (3) the treatment of compounds for 15 min and lysis in 1x passive lysis buffer (Promega) and luciferase activity measurement.
Assay [3] has as its system ERBB receptors, HTR2A, and downstream signaling pathways. Put plainly: ERBBprofiler multiplexed barcoded assay, overall statements across all receptor batches and sensors. Particulars: for CRE sensor response at high compound concentration (barcoded): 10 μM compound, PC12 cells, stimulation mix.
Assay [4] has as its system ERBB4. Also on record: method as in Nam et al., 2011. The note with it: tyrosine kinase assay kit (Panvera); ref Nam et al., 2011; read-out: IC50_Literature, ERBB4; cited from earlier work.
For assay [5], the system named is ERBB4 NFAT. Nature of the assay: ERBBprofiler barcoded NFAT pathway sensor, ERBB4 co-transfected. Type of assay: cell-based, Rattus norvegicus. The note with it: PC12 cells; constant EGF 30 ng/mL, EGFld 10 ng/mL, serotonin 1 μM; 6 h; barcode readout; relative IC50.
Assay [6] concerns NCI-H1975 cells. Also on record: method as in Dong et al., 2019. Particulars: growth of NCI-H1975 cells; ref Dong et al., 2019; read-out: IC50_Literature, EGFR; cited from earlier work.
The subject of assay [7] is HTR2A NFAT. Put plainly: ERBBprofiler barcoded NFAT pathway sensor, HTR2A co-transfected. Particulars: Rattus norvegicus, PC-12, 6 h, read-out: HTR2A NFAT IC50.
The subject of assay [8] is CRE sensor. Nature of the assay: CRE sensor only luciferase assay in PC12 cells. Type of assay: cell-based, Rattus norvegicus.
Procedure: 50,000 PC12 cells were seeded per 96-well onto poly-L-lysin (PLL)-coated plates and transfected the following day (day in vitro 1, DIV1) with assay plasmids using Lipofectamine 3000 (Thermo Fisher Scientific). […] For pathway assays, the receptor plasmids (15 ng/well) and pathway reporter plasmids (15 ng/well) pEGR1p-luc2 for monitoring MAPK signaling, pCRE-CMVmin-luc2 for monitoring cAMP/Ca^2+ signaling, or p6xNFAT-CMVmin-luc2 for Ca^2+ signaling were used. Transient transfections were conducted according to the manufacturer’s instructions. On DIV2, cells were starved in medium containing 1% FCS for 16 h. […] In the case of antagonist assays, compounds were added at increasing doses together with the stimulus. Cells were lysed in 1x passive lysis buffer (Promega) and subjected to a firefly luciferase assay using a self-made substrate for firefly luciferase.[100] Luciferase activity was analyzed in a Mithras LB 940 Multimode Microplate Reader (Berthold Technologies). All assays were run in 96-well plates using six replicates per condition.
Assay [9] relates to HTR2A EGR1p. Nature of the assay: ERBBprofiler barcoded EGR1p pathway sensor, HTR2A co-transfected. Particulars: Rattus norvegicus, PC-12, 6 h, read-out: HTR2A EGR1p IC50.
Assay [10] relates to ERBB2/3 EGR1p. Nature of the assay: ERBBprofiler barcoded EGR1p pathway sensor, ERBB2/3 co-transfected. The note with it: Rattus norvegicus, PC-12, 6 h, read-out: ERBB2/3 EGR1p IC50.
For assay [11], the system named is EGFR EGR1p. Nature of the assay: ERBBprofiler barcoded EGR1p pathway sensor, EGFR co-transfected. The note with it: Rattus norvegicus, PC-12, 6 h, read-out: EGFR EGR1p IC50.
In assay [12] the target is ERBB4 (Homo sapiens, UniProt Q15303). Put plainly: ERBBprofiler barcoded split TEV assay, ERBB4. The note with it: ERBB4 UAS (split TEV) IC50, PC12 cells; constant EGF 30 ng/mL, EGFld 10 ng/mL, serotonin 1 μM; 6 h; barcode readout; relative IC50.
The target in assay [13] is HTR2A (Homo sapiens, UniProt P28223). Put plainly: ERBBprofiler barcoded split TEV assay, HTR2A.
The target in assay [14] is ERBB2/3 (Homo sapiens, UniProt P04626+P21860). Put plainly: ERBBprofiler barcoded split TEV assay, ERBB2/3.
Assay [15] relates to Calu-3 and NCI-H1781 cells. Details: method as in Dong et al., 2019. The note with it: growth of Calu-3 and NCI-H1781 cells; ref Dong et al., 2019; read-out: IC50_Literature, ERBB2; cited from earlier work.
The subject of assay [16] is ERBB4 EGR1p. Put plainly: ERBBprofiler barcoded EGR1p pathway sensor, ERBB4 co-transfected. The note with it: Rattus norvegicus, PC-12, 6 h, read-out: ERBB4 EGR1p IC50.
The subject of assay [17] is EGFR NFAT. Nature of the assay: ERBBprofiler barcoded NFAT pathway sensor, EGFR co-transfected. Type of assay: cell-based, Rattus norvegicus.
The test system of assay [18] is ERBB2/3 NFAT. Nature of the assay: ERBBprofiler barcoded NFAT pathway sensor, ERBB2/3 co-transfected. The note with it: PC12 cells; constant EGF 30 ng/mL, EGFld 10 ng/mL, serotonin 1 μM; 6 h; barcode readout; relative IC50. Type of assay: cell-based, Rattus norvegicus.
Assay [19] concerns ERBB2. Details: method as in Hasako et al., 2018. Particulars: biochemical kinase activity assay by Carna Biosciences; ref Hasako et al., 2018; read-out: IC50_Literature, ERBB2; cited from earlier work.
Assay [20] concerns EGFR. Also on record: method as in Hasako et al., 2018. The note with it: phospho-WB in NIH/3T3 cell lines; ref Hasako et al., 2018; read-out: IC50_Literature, EGFR; cited from earlier work.
The test system of assay [21] is ERBB4. Details: method as in Hasako et al., 2018. Particulars: biochemical kinase activity assay by Carna Biosciences; ref Hasako et al., 2018; read-out: IC50_Literature, ERBB4; cited from earlier work.
The target of assay [22] is EGFR (Homo sapiens, UniProt P00533). Put plainly: ERBBprofiler barcoded split TEV assay, EGFR.

HTR2A, sequence (P28223 whole entry): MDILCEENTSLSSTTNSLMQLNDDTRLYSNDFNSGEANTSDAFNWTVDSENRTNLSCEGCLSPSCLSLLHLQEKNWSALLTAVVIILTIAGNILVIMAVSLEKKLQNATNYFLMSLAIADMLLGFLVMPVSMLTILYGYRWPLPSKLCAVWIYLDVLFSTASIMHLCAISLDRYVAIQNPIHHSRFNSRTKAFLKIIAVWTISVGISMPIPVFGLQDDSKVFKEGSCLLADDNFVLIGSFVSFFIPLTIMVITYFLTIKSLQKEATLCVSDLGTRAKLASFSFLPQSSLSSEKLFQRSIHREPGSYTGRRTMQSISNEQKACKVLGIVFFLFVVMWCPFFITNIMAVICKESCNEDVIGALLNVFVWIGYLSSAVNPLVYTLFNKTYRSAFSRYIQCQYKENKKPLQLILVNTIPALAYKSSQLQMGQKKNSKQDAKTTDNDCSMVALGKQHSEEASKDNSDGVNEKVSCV
ERBB4 (Homo sapiens, UniProt Q15303), sequence (Q15303 26-1308): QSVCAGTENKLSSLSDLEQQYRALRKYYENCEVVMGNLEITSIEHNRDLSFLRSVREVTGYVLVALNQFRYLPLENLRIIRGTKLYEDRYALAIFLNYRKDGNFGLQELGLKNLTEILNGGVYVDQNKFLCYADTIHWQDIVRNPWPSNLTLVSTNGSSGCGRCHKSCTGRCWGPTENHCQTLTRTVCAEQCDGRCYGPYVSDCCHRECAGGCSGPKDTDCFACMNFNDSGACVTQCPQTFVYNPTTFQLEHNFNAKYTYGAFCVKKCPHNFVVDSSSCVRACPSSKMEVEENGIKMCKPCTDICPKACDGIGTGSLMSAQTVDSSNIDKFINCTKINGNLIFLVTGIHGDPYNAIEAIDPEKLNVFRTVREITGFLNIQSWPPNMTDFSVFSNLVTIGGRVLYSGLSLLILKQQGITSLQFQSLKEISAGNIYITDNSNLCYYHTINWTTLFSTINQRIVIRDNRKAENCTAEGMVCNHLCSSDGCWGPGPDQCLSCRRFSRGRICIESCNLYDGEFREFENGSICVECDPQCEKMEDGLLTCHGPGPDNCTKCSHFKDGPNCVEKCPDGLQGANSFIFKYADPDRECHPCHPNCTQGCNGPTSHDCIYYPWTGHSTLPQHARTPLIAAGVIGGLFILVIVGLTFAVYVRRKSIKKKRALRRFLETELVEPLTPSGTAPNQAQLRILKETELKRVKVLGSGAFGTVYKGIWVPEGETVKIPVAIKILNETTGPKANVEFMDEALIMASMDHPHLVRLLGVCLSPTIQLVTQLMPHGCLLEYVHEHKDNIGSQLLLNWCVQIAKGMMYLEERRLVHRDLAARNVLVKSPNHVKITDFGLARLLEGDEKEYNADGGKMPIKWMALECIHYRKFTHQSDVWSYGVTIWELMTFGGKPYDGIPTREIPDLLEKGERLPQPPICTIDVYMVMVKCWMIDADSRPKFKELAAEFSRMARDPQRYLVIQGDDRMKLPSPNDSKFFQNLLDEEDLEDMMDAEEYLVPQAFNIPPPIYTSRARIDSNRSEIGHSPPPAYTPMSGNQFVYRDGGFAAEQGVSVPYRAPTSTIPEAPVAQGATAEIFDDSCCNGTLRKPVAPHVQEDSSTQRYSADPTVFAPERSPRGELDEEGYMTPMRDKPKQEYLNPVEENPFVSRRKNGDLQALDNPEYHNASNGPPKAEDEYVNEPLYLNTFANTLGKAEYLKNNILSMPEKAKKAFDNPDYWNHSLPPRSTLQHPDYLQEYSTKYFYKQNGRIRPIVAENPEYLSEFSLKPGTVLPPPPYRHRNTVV
ERBB2/3, sequence (P04626 23-1255): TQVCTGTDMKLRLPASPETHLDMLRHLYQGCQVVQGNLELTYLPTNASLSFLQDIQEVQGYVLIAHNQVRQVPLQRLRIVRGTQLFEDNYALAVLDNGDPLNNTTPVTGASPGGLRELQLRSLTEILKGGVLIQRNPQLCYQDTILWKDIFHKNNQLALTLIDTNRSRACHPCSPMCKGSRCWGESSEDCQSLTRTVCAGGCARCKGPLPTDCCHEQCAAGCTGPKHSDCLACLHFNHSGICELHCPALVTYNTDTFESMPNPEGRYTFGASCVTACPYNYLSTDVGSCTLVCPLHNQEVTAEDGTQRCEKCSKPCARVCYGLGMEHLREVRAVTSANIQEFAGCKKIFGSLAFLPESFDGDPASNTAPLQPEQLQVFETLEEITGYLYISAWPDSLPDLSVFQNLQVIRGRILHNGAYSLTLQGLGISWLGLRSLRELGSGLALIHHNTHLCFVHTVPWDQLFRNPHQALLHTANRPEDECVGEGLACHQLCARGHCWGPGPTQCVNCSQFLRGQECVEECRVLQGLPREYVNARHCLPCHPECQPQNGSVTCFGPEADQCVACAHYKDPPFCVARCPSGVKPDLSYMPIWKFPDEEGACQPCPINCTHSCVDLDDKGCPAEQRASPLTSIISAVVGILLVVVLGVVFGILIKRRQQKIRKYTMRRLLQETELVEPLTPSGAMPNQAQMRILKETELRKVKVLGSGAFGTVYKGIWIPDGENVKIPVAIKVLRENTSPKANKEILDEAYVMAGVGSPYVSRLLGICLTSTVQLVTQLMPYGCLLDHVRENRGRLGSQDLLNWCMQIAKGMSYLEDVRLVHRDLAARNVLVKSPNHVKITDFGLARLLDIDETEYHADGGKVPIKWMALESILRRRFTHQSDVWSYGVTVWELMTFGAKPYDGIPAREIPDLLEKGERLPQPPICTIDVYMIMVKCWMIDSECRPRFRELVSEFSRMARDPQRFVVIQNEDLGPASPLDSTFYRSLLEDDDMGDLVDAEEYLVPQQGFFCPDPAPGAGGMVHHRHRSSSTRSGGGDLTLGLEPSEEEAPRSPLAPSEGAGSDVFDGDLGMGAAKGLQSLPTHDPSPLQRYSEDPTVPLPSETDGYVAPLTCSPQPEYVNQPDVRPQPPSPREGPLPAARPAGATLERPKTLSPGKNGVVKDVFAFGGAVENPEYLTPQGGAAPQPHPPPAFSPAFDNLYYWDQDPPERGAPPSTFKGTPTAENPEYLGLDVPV
ERBB2/3, sequence (P21860 20-1342): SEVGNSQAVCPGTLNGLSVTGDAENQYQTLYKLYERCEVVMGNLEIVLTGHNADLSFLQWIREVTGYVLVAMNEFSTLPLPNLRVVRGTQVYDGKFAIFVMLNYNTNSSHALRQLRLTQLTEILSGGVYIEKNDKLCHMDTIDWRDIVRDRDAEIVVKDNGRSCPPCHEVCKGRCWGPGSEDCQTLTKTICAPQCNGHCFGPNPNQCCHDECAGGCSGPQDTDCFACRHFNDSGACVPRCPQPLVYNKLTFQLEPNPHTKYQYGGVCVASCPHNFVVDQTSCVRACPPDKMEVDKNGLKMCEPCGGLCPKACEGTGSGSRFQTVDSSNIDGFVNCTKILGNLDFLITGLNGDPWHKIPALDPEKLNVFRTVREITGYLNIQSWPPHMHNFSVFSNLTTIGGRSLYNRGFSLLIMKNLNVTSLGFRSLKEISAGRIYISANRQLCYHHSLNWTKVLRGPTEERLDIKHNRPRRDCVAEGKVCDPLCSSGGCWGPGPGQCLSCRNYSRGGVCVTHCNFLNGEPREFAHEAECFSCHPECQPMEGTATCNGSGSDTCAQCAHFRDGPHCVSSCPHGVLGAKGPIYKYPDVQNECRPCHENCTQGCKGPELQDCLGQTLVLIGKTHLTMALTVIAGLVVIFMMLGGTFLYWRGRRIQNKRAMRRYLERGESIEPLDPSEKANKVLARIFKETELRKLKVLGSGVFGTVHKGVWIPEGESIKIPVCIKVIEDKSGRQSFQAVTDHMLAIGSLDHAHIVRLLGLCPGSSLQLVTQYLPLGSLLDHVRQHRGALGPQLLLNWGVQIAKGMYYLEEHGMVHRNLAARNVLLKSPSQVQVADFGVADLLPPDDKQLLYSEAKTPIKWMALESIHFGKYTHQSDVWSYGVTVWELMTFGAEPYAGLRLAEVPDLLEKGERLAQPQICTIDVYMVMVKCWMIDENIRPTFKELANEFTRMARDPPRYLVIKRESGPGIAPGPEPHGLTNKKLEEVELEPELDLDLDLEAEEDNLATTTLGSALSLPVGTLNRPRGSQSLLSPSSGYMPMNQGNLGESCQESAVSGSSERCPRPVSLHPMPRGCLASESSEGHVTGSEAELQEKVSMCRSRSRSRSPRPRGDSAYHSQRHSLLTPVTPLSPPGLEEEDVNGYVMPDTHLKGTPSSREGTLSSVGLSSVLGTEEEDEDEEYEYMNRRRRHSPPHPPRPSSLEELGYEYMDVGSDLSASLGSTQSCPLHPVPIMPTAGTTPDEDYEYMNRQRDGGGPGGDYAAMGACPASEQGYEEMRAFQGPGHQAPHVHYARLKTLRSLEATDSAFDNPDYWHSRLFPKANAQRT

Regarding `C=CC(=O)N1CCC(Oc2cc3c(Nc4ccc(Cl)c(Cl)c4F)ncnc3cc2OC)CC1` [Poziotinib, Poziotinib (HM781-36B)], in assay [1], the “effect on calcium levels (Fluo-4 AM)” value was “but not calcium levels”. Also, the “effect on cAMP levels (GloSensor)” value in assay [2] is given as “increase of cAMP”. The pEC50 in [2] (Rattus norvegicus, PC-12, 0.25 h, constant stimulation mix, 15 min, cAMP increase) was 5.54; in assay [8] (Rattus norvegicus, PC-12) it was 5.79. In addition, in assay [2] (stimulation mix), the “compound concentration resulting in elevated cAMP (GloSensor)” value is at least 3 µM. Moreover, in assay [3], the “CRE sensor response at high compound concentration (barcoded)” value is on record as “upregulation of the CRE sensor; also recorded: upregulated CRE sensor response”. The pIC50 was 7.63 in assay [4]; 8.06 to 8.77 in assay [6]; 7.80 in assay [7]; 8.94 in assay [9]; 9.10 in [10]; 9.05 in [11]. Further, the pIC50 in assay [12] was 8.51; in assay [13], 8.34; in assay [14] it was 8.58; in [15], 8.21 to 8.60; in [16] it was 9.06. Besides, the “ERBB4 NFAT IC50” value in assay [5] is “no effect (EGFR, ERBB2/3, ERBB4) - 0.016 µM (HTR2A)”. The “effect on CRE sensor activity (luciferase), in words” value in assay [8] (PC12 cells, CRE sensor only, stimulation mix) was “CRE sensor activation at high compound concentrations”. For the same compound, the “EGFR NFAT IC50” value in assay [17] (PC12 cells, constant EGF 30 ng/mL, EGFld 10 ng/mL, serotonin 1 μM, 6 h, barcode readout, relative IC50) is on record as “no effect (EGFR, ERBB2/3, ERBB4) - 0.016 µM (HTR2A)”.

As for `C=CC(=O)N[C@H]1C=C(C)c2c(-c3cnc4ccccc4c3)c3c(N)ncnc3n2C1` [TAS6417, TAS6417 (Zipalertinib)], the “CRE sensor response at high compound concentration (barcoded)” value in assay [3] is given as “upregulated CRE sensor response”. The “IC50_ERBBpro, cAMP/Ca2+ (CRE sensor)” value in [3] (ERBBprofiler, no receptor named in the cell) is reported as “no effect”. For the same compound, in assay [18], the “ERBB2/3 NFAT IC50” value is given as “no effect (EGFR, ERBB2/3, ERBB4) - 0.848 µM (HTR2A, small effect)”. Also, the pIC50 in assay [19] is 6.41; in assay [7] it was 6.07; in [20], 6.43; in assay [9] it was 6.71; in assay [10] it was 6.57; in assay [11], 7.02. For the same compound, the pIC50 in [12] is 7.04; in [21], 8.40; in assay [13], 6.35; in assay [14] it was 6.69; in [16] it was 7.26; in assay [22], 7.04. Besides, the “ERBB4 NFAT IC50” value in assay [5] is “no effect (EGFR, ERBB2/3, ERBB4) - 0.848 µM (HTR2A, small effect)”. Moreover, the “EGFR NFAT IC50” value in [17] is “no effect (EGFR, ERBB2/3, ERBB4) - 0.848 µM (HTR2A, small effect)”.
